Experiment [1] has as its system a variety of crops and weed species. In words: Pre- and post-emergence herbicide tests, overall assessment of TABLES III-VI. It counts as in vivo. Conditions: from data of TABLES III-VI. The procedure: (§1) All crop and weed species were planted individually in 3" plastic pots containing potting soil. Four seeds each of corn, cotton, and snapbeans were seeded to a depth equal to the diameter of the seed. All other species were surface seeded and sprinkled with screened soil in an amount sufficient to cover the seed. Immediately after planting, all pots were watered by sub-irrigation in greenhouse trays. Pots for the pre-emergence phase were seeded one day before treatment.
(§2) Planting dates for the post-emergence phase were varied so that all seedlings would reach the desired stage of development simultaneously. The proper stage of seedling development for treatment in the post-emergence phase is as follows:
(§3) Compounds were tested at rates of application equivalent to 8 lbs. of actual compound per acre in a spray volume of 38 gallons per acre. Spray hood constants required to deliver the above volume are as follows:
(§4) Two weeks after treatment, pre- and post-emergence injury or control was visually rated, and the results were as shown in the following tables. Pre-emergence data are provided in TABLE III and post-emergence data are provided in TABLE IV, for compounds having the formula illustrated in TABLE I. Correspondingly, pre-emergence and post-emergence data, respectively, are set forth in TABLES V AND VI, for compounds having the formula illustrated in TABLE II.
Typical of such compounds are: 1, 2, 5, 26, 36, and 37.

In experiment [2] the test system is Cotton (CT). In words: Pre-emergence herbicide test, cotton. Conditions: two weeks. It is filed as in vivo, Gossypium hirsutum var. DPL smooth leaf. The procedure: (§5) Cotton (CT)--Gossypium hirsutum var. DPL smooth leaf
as §1, §3
(§6) Formulations for spray applications were prepared in 50 ml volumes with the following three components:
(§7) Formulations for the 4 lbs/acre rate were prepared by adjusting the amount of active ingredient accordingly.
(§8) Spray applications were made in a hood containing a removable belt and fixed spray nozzle. For passage through the spray hood, one pot of each specie (pre-emergence phase) was placed on the rear half of the flat. Treatments were removed to the greenhouse after spraying. Watering during the observation period was done only by sub-irrigation.
as §4

For experiment [3], the system named is Crabgrass (CG). In words: Post-emergence herbicide test, crabgrass. The settings on record: two weeks. It counts as in vivo, Digitaria sanguinalis. The procedure: (§9) Crabgrass (CG)--Digitaria sanguinalis
as §1, §2
(§10) Spray hood constants required to deliver the above volume are as follows:
(§11) Formulations for spray applications were prepared in 50 ml volumes with the following three components: […]
as §8, §4

Experiment [4] concerns Crabgrass (CG). In words: Pre-emergence herbicide test, crabgrass. It is filed as in vivo, Digitaria sanguinalis. The settings on record: two weeks. The procedure: as §9, §1, §10, §6, §7, §8, §4
In experiment [5] the test system is Yellow foxtail grass (YF). Description: Pre-emergence herbicide test, yellow foxtail grass. It counts as in vivo, Setarin glauca. Conditions: two weeks. How it is done: (§12) Yellow foxtail grass (YF)--Setarin glauca
as §1, §10, §11, §8, §4

Experiment [6] deals with Johnson grass (JG). Description: Pre-emergence herbicide test, Johnson grass. It counts as in vivo, Sorgum helepense. The settings on record: two weeks. How it is done: (§13) Johnson grass (JG)--Sorgum helepense
as §1, §10, §11, §8, §4

The test system of experiment [7] is Barnyard grass (BG). In words: Pre-emergence herbicide test, barnyard grass. It is filed as in vivo, Echinochloa crus-galli. The settings on record: two weeks. How it is done:
(§14) Barnyard grass (BG)--Echinochloa crus-galli
as §1, §3, §6, §7, §8, §4

The test system of experiment [8] is Amaranth pigweed (PW). Description: Pre-emergence herbicide test, amaranth pigweed. It counts as in vivo, Amaranthus retroflexus. Conditions: two weeks. How it is done: (§15) Amaranth pigweed (PW)--Amaranthus retroflexus
as §1, §3, §6, §7, §8, §4

Experiment [9] has as its system Turnip (TP). In words: Pre-emergence herbicide test, turnip. It is filed as in vivo, Brassica sp. Conditions: two weeks. How it is done: (§16) Turnip (TP)--Brassica sp.
as §1, §10, §11, §8, §4

The subject of experiment [10] is Corn (CN). Description: Pre-emergence herbicide test, corn. It is filed as in vivo, Zea mays. Conditions: two weeks. The procedure:
as §1, §3, §6, §7, §8, §4

Experiment [11] relates to Bean (BN). Description: Pre-emergence herbicide test, bean. The settings on record: two weeks. It is filed as in vivo, Phaseolus vulgaris var. Black Valentine. How it is done:
(§17) Bean (BN)--Phaseolus vulgaris var. Black Valentine
as §1, §3, §6, §7, §8, §4

The subject of experiment [12] is Yellow foxtail grass (YF). In words: Post-emergence herbicide test, yellow foxtail grass. Conditions: two weeks. It counts as in vivo, Setarin glauca. The procedure:
as §12, §1, §2, §3, §6, §7, §8, §4

The subject of experiment [13] is Johnson grass (JG). In words: Post-emergence herbicide test, Johnson grass. It counts as in vivo, Sorgum helepense. The settings on record: two weeks. How it is done:
as §13, §1, §2, §10, §11, §8, §4

Experiment [14] deals with Barnyard grass (BG). Description: Post-emergence herbicide test, barnyard grass. It counts as in vivo, Echinochloa crus-galli. The settings on record: two weeks. How it is done: as §14, §1, §2, §10, §11, §8, §4
The subject of experiment [15] is Amaranth pigweed (PW). In words: Post-emergence herbicide test, amaranth pigweed. It counts as in vivo, Amaranthus retroflexus. Conditions: two weeks. The procedure: as §15, §1, §2
(§18) Pigweed and turnips: 1 or 2 true leaves above visible cotyledons.
as §3, §6, §7, §8, §4

Experiment [16] deals with Turnip (TP). Description: Post-emergence herbicide test, turnip. It counts as in vivo, Brassica sp. The settings on record: two weeks. How it is done:
as §16, §1, §2, §18, §10, §11, §8, §4

The subject of experiment [17] is Cotton (CT). Description: Post-emergence herbicide test, cotton. It is filed as in vivo, Gossypium hirsutum var. DPL smooth leaf. The settings on record: two weeks. How it is done: as §5, §1, §2
cotton: first true leaf 1" in length; expanded cotyledons.
as §10, §6, §7, §8, §4

The subject of experiment [18] is Corn (CN). In words: Post-emergence herbicide test, corn. It counts as in vivo, Zea mays. Conditions: two weeks. The procedure: as §1, §2, §3, §6, §7, §8, §4
For experiment [19], the system named is Bean (BN). Description: Post-emergence herbicide test, bean. It is filed as in vivo, Phaseolus vulgaris var. Black Valentine. Conditions: two weeks. How it is done:
as §17, §1, §2
Beans: primary leaves expanded, growing point at primary leaf nodes.
as §10, §6, §7, §8, §4

In the case of `CNC(=O)Nc1nnc(C(F)(F)F)s1` [Example 1, 1-Methyl-3-[5-Trifluoromethyl-2-(1,3,4-Thiadiazolyl)]Urea], the “herbicidal effectiveness and selectivity (in words)” value in [1] is recorded as “extremely effective”.

For the molecule `Cc1nnc(NC(=O)N(C)C)s1` [Example 19], the “herbicidal effectiveness and selectivity (in words)” value in [1] is recorded as “converse of this relationship”.

Regarding `C=CCNC(=O)Nc1nnc(C(F)(F)F)s1` [Example 12], the “herbicidal effectiveness and selectivity (in words)” value in experiment [1] is “control post-emergence growth, while have little effect in regard to pre-emergence”.

On to `CNC(=O)Nc1nnc(-c2cccc(C(F)(F)F)c2)s1` [Example 73], for which the pest or weed control – broadly, the degree to which the test organism was suppressed or injured, in per cent – at 4483.4 g/ha in [2] (Gossypium hirsutum, pre-emergence, 336 h, 4 lb/acre) stood at 10%; in experiment [3] (Digitaria sanguinalis, post-emergence, 336 h, 4 lb/acre), 80%.

Take `CNC(=O)Nc1nncs1` [Example 35]: the “herbicidal effectiveness and selectivity (in words)” value in experiment [1] is given as “more selective”.

In the case of `CNC(=O)N(C)c1nnc(C(F)(F)F)s1` [Example 36], the “herbicidal effectiveness and selectivity (in words)” value in experiment [1] was “extremely effective”.

For `CSc1nnc(N(C)C(=O)N(C)C)s1` [Example 5, 1,1,3-trimethyl-3-[5-methylthio-2-(1,3,4-thiadiazolyl)]urea], the “herbicidal effectiveness and selectivity (in words)” value in [1] is given as “extremely effective”.

Regarding `CNC(=O)N(C)c1nnc(C(C)(C)C)s1` [Example 42], the “PRE-EMERGENCE ACTIVITY, % CONTROL” value is listed as 90% in experiment [4] (2 lb/acre); 90% in [4] (4 lb/acre); 90% in [4] (8 lb/acre); 90% in [5] (2 lb/acre); 80% in experiment [5] (4 lb/acre); 90% in experiment [5] (8 lb/acre). Further, the “PRE-EMERGENCE ACTIVITY, % CONTROL” value stood at 70% in experiment [6] (2 lb/acre); 90% in [6] (4 lb/acre); 100% in experiment [6] (8 lb/acre); 80% in experiment [7] (2 lb/acre); 90% in experiment [7] (4 lb/acre); 90% in [7] (8 lb/acre). Moreover, the “PRE-EMERGENCE ACTIVITY, % CONTROL” value in [8] (2 lb/acre) came to 100%; in experiment [8] (4 lb/acre), 100%; in experiment [8] (8 lb/acre) it was 100%; in experiment [9] (2 lb/acre), 100%; in experiment [9] (4 lb/acre), 90%; in experiment [9] (8 lb/acre), 100%. Also, the “PRE-EMERGENCE ACTIVITY, % CONTROL” value in experiment [2] (2 lb/acre) is 30%; in experiment [2] (4 lb/acre), 70%; in experiment [2] (8 lb/acre) it was 90%; in experiment [10] (2 lb/acre), 0%; in experiment [10] (4 lb/acre) it was 60%; in experiment [10] (8 lb/acre) it was 90%. In addition, the “PRE-EMERGENCE ACTIVITY, % CONTROL” value is listed as 40% in experiment [11] (2 lb/acre), 90% in experiment [11] (4 lb/acre) and 100% in experiment [11] (8 lb/acre). Besides, the “POST-EMERGENCE ACTIVITY, % CONTROL” value stood at 40% in [3] (2 lb/acre); 70% in experiment [3] (4 lb/acre); 100% in [3] (8 lb/acre); 90% in experiment [12] (2 lb/acre); 90% in experiment [12] (4 lb/acre); 100% in experiment [12] (8 lb/acre). In addition, the “POST-EMERGENCE ACTIVITY, % CONTROL” value in [13] (2 lb/acre) is on record as 70%; in experiment [13] (4 lb/acre), 90%; in [13] (8 lb/acre) it was 100%; in [14] (2 lb/acre), 90%; in experiment [14] (4 lb/acre), 90%; in [14] (8 lb/acre), 100%. Besides, the “POST-EMERGENCE ACTIVITY, % CONTROL” value in experiment [15] (2 lb/acre), in experiment [15] (4 lb/acre), in [15] (8 lb/acre), in [16] (2 lb/acre), in [16] (4 lb/acre) and in [16] (8 lb/acre) was 100% each time. The “POST-EMERGENCE ACTIVITY, % CONTROL” value in [17] (2 lb/acre) worked out at 100%; in experiment [17] (4 lb/acre) it was 100%; in experiment [17] (8 lb/acre) it was 100%; in experiment [18] (2 lb/acre) it was 70%; in experiment [18] (4 lb/acre), 70%; in [18] (8 lb/acre), 100%. Besides, the “POST-EMERGENCE ACTIVITY, % CONTROL” value in [19] (2 lb/acre) is 80%; in [19] (4 lb/acre), 100%; in [19] (8 lb/acre), 100%.

Take `NC(=O)Nc1nnc(C(F)(F)F)s1` [Example 70]: the “PRE-EMERGENCE ACTIVITY, % CONTROL” value in [4] (5 lb/acre), in [4] (10 lb/acre), in [9] (5 lb/acre) and in experiment [9] (10 lb/acre) was 10% throughout. For the same molecule, the “POST-EMERGENCE ACTIVITY, % CONTROL” value in experiment [3] (5 lb/acre) is 20%; in [3] (10 lb/acre) it was 20%; in experiment [16] (5 lb/acre) it was 80%; in [16] (10 lb/acre), 80%; in [17] (5 lb/acre), 20%; in experiment [17] (10 lb/acre), 20%. For the same molecule, the “POST-EMERGENCE ACTIVITY, % CONTROL” value in experiment [19] (5 lb/acre) and in experiment [19] (10 lb/acre) was 50% in each case.

In the case of `O=C(Nc1ccc(Cl)c(Cl)c1)Nc1nnc(C(F)(F)F)s1` [Example 16], the “herbicidal effectiveness and selectivity (in words)” value in experiment [1] is reported as “more selective”.

These data come from patent US4599424A, “5-substituted thiadiazole ureas and their use as herbicides” (priority 1979, dated 1986).
